Measurements reported in US11604141B2, “Zinc-selective fluorescent probes for emission-ratiometric imaging” (Georgia Tech Research Corporation, priority 2017, dated 2023).
Where a name gives a salt, the structure may show the parent alone.

Experiments:
[1] = UV-vis absorption spectra in methanol; type: physicochemical; conditions: methanol at 298 K, relative to compound I
Text: FIG. 26: UV-vis absorption spectra of compounds I, […] in methanol at 298 K.
UV-vis Spectral Characterization of Compounds I, II, and III.

[2] = tested on: labile Zn(II) pools in live NIH 3T3 mouse fibroblasts; experiment: Ratiometric TPEM imaging of labile Zn(II) in live cells; type: cell-based
Procedure: FIG. 25A-25B. Ratiometric imaging of labile Zn(II) pools in live NIH 3T3 mouse fibroblasts with chromis-2 by TPEM (excitation at 720 nm). (FIG. 25A) Left: Phase contrast image (DIC) and fluorescence intensity images acquired with 425-462 nm (BP1) and 478-540 nm (BP2) bandpass filters, respectively. Right: Intensity ratio image with R=BP2/BP1. (FIG. 25B) Left: Ratio images (BP2/BP1) prior (at 3 min) and after addition of 50 μM ZnSO4 and 5 μM pyrithione (at 9 min). […] Right: Time course of the average intensity ratio change for the ROI indicated with a white circle in the left panel. The asterisks indicate time points for the respective ratio images shown to the left. Scale bars: 40 μm.
To evaluate the Zn(II)-dependent ratiometric response of chromis-2 within the chemical complexity of a live cell, we performed a perfusion experiment with NIH 3T3 mouse fibroblasts as model system (FIG. 25). To this end, fibroblast cells were cultured in Dulbecco's modified Eagle's medium (DMEM, Lonza) supplemented with 10% bovine serum (Gemini), penicillin/streptomycin (50 IU/mL), 200 μM L-glutamine, and 100 μM sodium pyruvate at 37° C. under an atmosphere of humidified air containing 5% CO2. For imaging experiments, cells were grown to 70% confluency on MatTek glass bottom culture dishes pre-coated with poly-L-lysine using phenol red-free DMEM (10% bovine serum, 50 IU/mL penicillin/streptomycin, 200 μM L-glutamine, and 100 μM sodium pyruvate). After replacing the growth medium with serum-free DMEM containing chromis-2 (10 μM), cells were incubation for 30 minutes at 37° C. (5% CO2 atmosphere), and the incubation solution was again replaced with pre-warmed full media. Cells were imaged in an atmospheric chamber at 37° C., […], and 5% CO2 using a Zeiss LSM confocal NLO 710 microscope equipped with a femtosecond pulsed Ti:sapphire laser. Scanning fluorescence micrographs were acquired with excitation at 720 nm, and the integrated emission intensity was simultaneously collected through two band pass filters between 425-462 nm and 478-540 nm. The corresponding ratio-images were derived with ImageJ based on the integrated photon counts on a pixel-per-pixel basis (FIG. 25A, right). […] Although the fluorescence intensity distribution appears uneven, including distinct punctate localizations, the corresponding ratio-image indicates a rather even fractional saturation with an average ratio R of 0.64±0.2.

[3] = Excited-state pKa calculated using the Forster Cycle; type: physicochemical; conditions: calculated with the Forster Cycle
Text: To circumvent the issue of excited-state protonation of the fluorophore, the inventors synthesized a chromis-1 compound 1, whose structure lacked the bis(2-pyridylmethyl)amine chelating moiety but incorporated an O-alkylsulfonate group to enhance water solubility, to determine the unperturbed ground-state pKa of the pyridyl acceptor.

[4] = Spectrophotometric pH titration, determination of protonation constants; type: physicochemical; conditions: aqueous 0.1 M KCl solution, 25° C., fit to a single protonation, read-out: ground-state pKa (pKH1) of the pyridyl acceptor
Procedure: FIG. 12. Spectrophotometric pH titration of compound 1 at 25° C. in aqueous buffer (5 mM PIPBS, 0.1 M KCl, 5 mM KOH, pH 5.6). Black arrows indicate the change in absorbance after each aliquot of HCl was added. The absorbance from 250-500 nm was recorded as a function of pHe (−log[H3O^+]), and the data were analyzed by non-linear least squares fitting to a single protonation to yield an average pKH1=4.49±0.002 (n=3).
FIG. 13. Spectrophotometric pH titration of compound 2 at 25° C. in 0.1 M KCl. Black arrows indicate the change in absorbance after each aliquot of HCl was added. The absorbance (250-500 nm) was recorded as a function of pHc (−log[H3O^+]), and the data were analyzed by non-linear least squares fitting to a single protonation to yield an average pKH1=2.34±0.002 (n=3).
Protonation constants were determined as concentration constants (log KH) based on potentiometric titrations using a combination double junction glass electrode. […] From the experimental emf data, the endpoint, electrode potential, and slope were determined using Gran's Method as implemented in the GLEE software package (pKw=13.78, μ=0.1 M KCl).^1 The calibration procedure was performed prior to each potentiometric titration, and the experimental electrode potential and slope that were used to calculate the experimental p[H] were derived as the average of the emf data from three independent titrations. […]

[5] = Steady-state absorption and fluorescence spectroscopy, molar ratio titration with Zn(II); type: physicochemical
Procedure: General Spectroscopic Methods. All buffers and stock solutions used for spectroscopic measurements were prepared using either HPLC-grade water (JT Baker) or 18.2 MΩ.cm Mili-Q water and filtered through a 0.2 μm filter to remove interfering dust particles or fibers. UV-Vis measurements were performed on a Varian Cary Bio50 spectrophotometer with a constant temperature accessory (Peltier) at 25° C. Fluorescence measurements were performed with a PTI fluorimeter equipped with a 75 W xenon arc lamp excitation source and a photomultiplier detection system (PMT voltage was 1100 V for all experiments). Fluorescence spectra were corrected for the spectral response of the detection system and for the spectral irradiance of the excitation source (via a calibrated photodiode). For all experiments, both UV-Vis and fluorescence, a 1-cm path length quartz cuvette was used, except for quantum yield determinations, which were performed with a 10-cm path length quartz cuvette for absorbance measurements.
Molar Ratio Titration of Probe 3b with Zn(II). […] After each aliquot, the solution was equilibrated for 30 seconds by magnetic stirring, and an absorbance (spectral window: 250-500 nm) (FIG. 14A) and fluorescence spectrum (excitation: 361 nm, spectral window: 380-700 nm) (FIG. 14B) were acquired.
Molar Ratio Titration of Chromis-2 with Zn(II). […] After each aliquot, the solution was equilibrated for 30 seconds by magnetic stirring, and an absorbance (spectral window: 250-500 nm) and fluorescence spectrum (excitation: 361 nm, spectral window: 380-700 nm) were acquired.

[6] = Determination of fluorescence quantum yields (referenced to quinine sulfate); type: physicochemical; conditions: neutral form, 10 mM PIPES, 100 mM KCl, pH 7.0; sodium salt
Procedure: Determination of Fluorescence Quantum Yields. Fluorescence quantum yields of 1, 2, 3b and chromis-2 (4) were determined in aqueous buffer (10 mM PIPES, 0.1 M KCl) at pH 7.0 by a 4-point measurement over an OD range of 0.1-0.4 using a […], with fluorimeter excitation at 365 nm. For probes 3b and chromis-2, the solutions containing the free forms were supplemented with 20 μM EDTA (from a 30 mM stock solution in diH2O) to sequester adventitious Zn(II), whereas to determine the Zn(II)-bound forms, the solutions were supplemented with 20 μM ZnSO4.7H2O to ensure complete saturation of the fluorophore. Fluorescence quantum yields for all fluorophores were determined using quinine sulfate (Df=0.546 in 1.0 N H2SO4) as a fluorescence standard.^2 To determine the quantum yield of 3a, single-point measurements were performed in aqueous buffer (10 mM PIPES, 0.1 M KCl, pH 7.0) supplemented with 100 μM 4:1 DMPC:DMPG liposomes and at a probe concentration of 2 μM. The quantum yields were also referenced to quinine sulfate with an OD matching that of 3a (2 μM) in liposomes.

[7] = Fluorescence solvent deuterium-isotope studies (D2O vs H2O buffer); type: physicochemical
Procedure: Fluorescence Deuterium-Isotope Studies of Compounds 1 & 2. Comparison of the fluorescence intensities of compounds 1 and 2 were conducted in deuterated and non-deuterated buffer (10 mM PIPES, 100 mM KCl, pH/D 7.0, 25° C.). A 3.0-mL solution of aqueous buffer was supplemented with 10 μM of each compound (from 3 mM stock solutions in H2O), and after thorough mixing via magnetic stirring, fluorescence spectra of 1 were acquired over the spectral window of 380-700 nm with excitation at […] and analogous fluorescence spectra of 2 were acquired over the spectral window of 380-650 nm with excitation at […].
Fluorescence Comparison of 3b and chromis-2 (4). Fluorescence comparison measurements of 3b and chromis-2 were conducted in deuterated and non-deuterated buffer (10 mM PIPES, 100 mM KCl, pH/D 7.0, 25° C.). A quartz cuvette with a 1-cm path length containing 3.0 mL of aqueous buffer was supplemented with 5 μM 3b (from a 3 mM stock solution in H2O), and after a 30-second equilibration via magnetic stirring, a fluorescence spectrum was acquired over the spectral window of 380-700 nm with excitation at 361 nm. The probe was then saturated with 5 μM ZnSO4.7H2O (from a 3 mM stock solution in H2O), and a fluorescence spectrum was acquired. This was repeated for 3b in deuterated buffer, but with supplementation of 5 μM ZnSO4.7H2O from a 3 mM stock solution in D2O. […]

[8] = in 1N H2SO4; cited from earlier work
[9] = Neutral, 10 mM PIPES, 100 mM KCl, pH 7.0

Row | change of UV-vis absorption spectrum (in words) [1] | pKa [3] | pKa [4] | Abs λmax [5, 9] | Em λmax [5, 9] | ε [5, 9] | Abs λmax ([5]; Protonated, 0.1N HCl (pH 1.0)) | Em λmax ([5]; Protonated, 0.1N HCl (pH 1.0)) | ε ([5]; Protonated, 0.1N HCl (pH 1.0)) | ΦF fluorescence quantum yield [6] | SMILES | also measured
1 | red-shifted absorption spectrum | – | – | – | – | – | – | – | – | – | COc1ccc(-c2ccc(-c3cnc(-c4ccccn4)s3)s2)cc1 [Compound III] | –
2 | red-shifted absorption spectrum | – | – | – | – | – | – | – | – | – | CN(C)c1ccc(-c2cnc(-c3ccccn3)s2)cc1 [Compound II] | –
3 | – | – | – | – | – | – | – | – | – | – | COc1ccc(-c2cnc(-c3cccc(CN(Cc4ncccn4)Cc4ncccn4)n3)s2)cc1 [chromis-2] | increase of intensity ratio upon ZnSO4 and pyrithione ([2]; NIH 3T3): more than 4 fold; average intensity ratio R (BP2/BP1), initial ([2]; NIH 3T3, 10 μM probe, excitation 720 nm, before additions): 0.64±0.2; intensity ratio R after ZnSO4 and pyrithione ([2]; NIH 3T3, 50 μM ZnSO4 and 5 μM pyrithione): 2.36±0.6; intensity ratio R after TPEN ([2]; NIH 3T3, 100 μM TPEN): 0.55±0.2
4 | – | ~11.7 | 4.49 ± 0.002 | 346 nm | 489 nm | 1.80 10^4 M^−1cm^−1 | 397 nm | 582 nm | 1.96 10^4 M^−1cm^−1 | 0.65 | O=S(=O)([O-])CCCOc1ccc(-c2cnc(-c3ccncc3)s2)cc1.[Na+] [compound 1, 3-(4-(2-(pyridin-4-yl)thiazol-5-yl)phenoxy)propane-1-sulfonate sodium salt] | increase in fluorescence intensity in D2O relative to H2O ([7]; 10 mM PIPES, 0.1 M KCl, pH/D 7.0, 25° C.): 18%
5 | – | 9.4 | 2.34 | 345 nm | 467 nm | 2.25 10^4 M^−1cm^−1 | 386 nm | 565 nm | 2.05 10^4 M^−1cm^−1 | 0.80 | O=S(=O)([O-])CCCOc1ccc(-c2cnc(-c3ccccn3)s2)cc1.[Na+] [compound 2, 3-(4-(2-(pyridin-2-yl)thiazol-5-yl)phenoxy)propane-1-sulfonate sodium salt] | excited-state pKa (pKa*) ([3]; sodium salt): 9.5; solvent deuterium isotope effect on emission (in words) ([7]; D2O versus H2O buffers): identical emission profiles
6 | – | – | – | – | – | – | – | – | – | – | C=C[C@H]1C[N@@]2CC[C@H]1C[C@H]2[C@H](O)c1ccnc2ccc(OC)cc12 [quinine sulfate] | ΦF of fluorescence standard [8]: 0.546
